Source: PMC7916522, “In Vitro and In Vivo Anti-Candida Activity and Structural Analysis of Killer Peptide (KP)-Derivatives” (Journal of Fungi, 2021)
Peptide text beside a SMILES is read from it.

Tests used:
Candida albicans SC5314 = assay: CFU assay, neutralization of candidacidal activity by laminarin; type: cell-based; settings: peptide at its minimal candidacidal concentration
Experimental: The candidacidal activity of KP-derivatives, in comparison to KP, was evaluated by a previously described colony forming unit (CFU) assay against the reference C. albicans strain SC5314 [25]. Briefly, approximately 500 yeast cells were incubated at 37 °C for 6 h in 100 µL of distilled water in the presence or absence (control growth) of the synthetic peptides at serial dilutions. After spreading on Sabouraud Dextrose agar (SDA) plates and incubation for 48–72 h at 30 °C, CFUs were counted. Peptide fungicidal activity was determined as percentage of CFU inhibition, according to the formula 100-(CFUs peptide treated/CFUs control growth) × 100. Each assay was carried out in triplicate and at least two independent experiments were performed for each condition. Half maximal effective concentration (EC50) was calculated by nonlinear regression analysis using GraphPad Prism 5 software (San Diego, CA, USA). CFU assays were also performed in order to verify if laminarin (100 or 200 µg/mL), a soluble β-1,3-glucan, could neutralize the candidacidal activity of KP-derivatives at their minimum fungicidal concentration [25].

LLC-MK2 cells = settings: 24 h incubation, resazurin assay; for Cell viability (%) 10 µM: peptide 10 µM; for Cell viability (%) 25 µM: peptide 25 µM; for Cell viability (%) 50 µM: peptide 50 µM
Experimental: (§1) A stock solution of peptides (20 mg/mL) was prepared in dimethyl sulfoxide (DMSO), then proper dilutions were made for evaluation of biological activities. DMSO at proper concentration was present in controls (without peptides). All the peptides were evaluated for their hemolytic activity against freshly collected human red blood cells, while cytotoxicity against monkey kidney epithelial cells LLC-MK2 was determined by resazurin assay, as previously described.

human red blood cells = settings: peptide 25 µM
Experimental: as §1

Row | Structure (SMILES) | C. albicans Growth Inhibition (%) in the Presence of Laminarin 100 µg/mL (Candida albicans SC5314) | C. albicans Growth Inhibition (%) in the Presence of Laminarin 200 µg/mL (Candida albicans SC5314) | Cell viability (%) 10 µM (LLC-MK2 cells) | Cell viability (%) 25 µM (LLC-MK2 cells) | Cell viability (%) 50 µM (LLC-MK2 cells) | hemolysis after 30 min (human red blood cells; 30 min incubation) | hemolysis after 120 min (human red blood cells; 120 min incubation)
1 | CSCC[C@H](NC(=O)[C@@H](NC(=O)[C@@H](NC(=O)[C@@H](N)CCCCN)C(C)C)[C@@H](C)O)C(=O)N[C@H](C(=O)N[C@@H](CS)C(=O)N[C@@H](CO)C(=O)N[C@@H](C)C(=O)N[C@@H](CO)C(=O)O)[C@@H](C)O [Peptide K9S] (H-KVTMTCSAS-OH) | 31.09 ± 1.71% | 0.68 ± 0.97% | 100% | 98.55% | 95.86% | – | –
2 | CSCC[C@H](NC(=O)[C@@H](NC(=O)[C@@H](NC(=O)[C@H](CCCCN)NC(=O)[C@@H]1CCCN1)C(C)C)[C@@H](C)O)C(=O)N[C@H](C(=O)N[C@@H](CS)C(=O)N[C@@H](CO)C(=O)N[C@@H](C)C(=O)N[C@@H](CO)C(=O)O)[C@@H](C)O [Peptide P10S] (H-PKVTMTCSAS-OH) | 97.71 ± 0.46% | 3.10 ± 4.38% | 93.25% | 90.20% | 89.77% | – | –
3 | CSCC[C@H](NC(=O)[C@@H](NC(=O)[C@@H](NC(=O)[C@H](CCCCN)NC(=O)[C@@H](N)CO)C(C)C)[C@@H](C)O)C(=O)N[C@H](C(=O)N[C@@H](CS)C(=O)N[C@@H](CO)C(=O)N[C@@H](C)C(=O)N[C@@H](CO)C(=O)O)[C@@H](C)O [Peptide S10S] (H-SKVTMTCSAS-OH) | 99.12 ± 0.50% | 60.73 ± 13.13% | 99.77% | 99.75% | 91.09% | – | –
4 | CSCC[C@H](NC(=O)[C@@H](NC(=O)[C@@H](NC(=O)[C@H](CCCCN)NC(=O)[C@@H](N)Cc1ccc(O)cc1)C(C)C)[C@@H](C)O)C(=O)N[C@H](C(=O)N[C@@H](CS)C(=O)N[C@@H](CO)C(=O)N[C@@H](C)C(=O)N[C@@H](CO)C(=O)O)[C@@H](C)O [Peptide Y10S] (H-YKVTMTCSAS-OH) | 5.57 ± 4.84% | – | 96.89% | 95.35% | 97.18% | – | –
5 | CSCC[C@H](NC(=O)[C@@H](NC(=O)[C@@H](NC(=O)[C@H](CCCCN)NC(=O)[C@H](C)N)C(C)C)[C@@H](C)O)C(=O)N[C@H](C(=O)N[C@@H](CS)C(=O)N[C@@H](CO)C(=O)N[C@@H](C)C(=O)N[C@@H](CO)C(=O)O)[C@@H](C)O [A10S (KP)] (H-AKVTMTCSAS-OH) | 96.39 ± 1.68% | 1.80 ± 0.49% | 93.59% | 88.20% | 89.71% | 1.13% | –
6 | CSCC[C@H](NC(=O)[C@@H](NC(=O)[C@@H](NC(=O)[C@H](CCCCN)NC(=O)[C@@H](N)CC(C)C)C(C)C)[C@@H](C)O)C(=O)N[C@H](C(=O)N[C@@H](CS)C(=O)N[C@@H](CO)C(=O)N[C@@H](C)C(=O)N[C@@H](CO)C(=O)O)[C@@H](C)O [Peptide L10S] (H-LKVTMTCSAS-OH) | 0% | – | 95.70% | 93.44% | 98.07% | – | –
7 | CSCC[C@H](NC(=O)[C@@H](NC(=O)[C@@H](NC(=O)[C@H](CCCCN)NC(=O)[C@@H](N)CCCCN)C(C)C)[C@@H](C)O)C(=O)N[C@H](C(=O)N[C@@H](CS)C(=O)N[C@@H](CO)C(=O)N[C@@H](C)C(=O)N[C@@H](CO)C(=O)O)[C@@H](C)O [Peptide K10S] (H-KKVTMTCSAS-OH) | 1.07 ± 0.39% | – | 93.74% | 100% | 90.95% | – | 2.42%
8 | CSCC[C@H](NC(=O)[C@@H](NC(=O)[C@@H](NC(=O)[C@H](CCCCN)NC(=O)[C@@H](N)Cc1c[nH]cn1)C(C)C)[C@@H](C)O)C(=O)N[C@H](C(=O)N[C@@H](CS)C(=O)N[C@@H](CO)C(=O)N[C@@H](C)C(=O)N[C@@H](CO)C(=O)O)[C@@H](C)O [Peptide H10S] (H-HKVTMTCSAS-OH) | 6.20 ± 3.71% | – | 96.77% | 94.90% | 90.99% | – | –
